This is an account of results in PubChem BioAssay (NCI).

“And” between values parts separate entries of the source, which are not always exact repeats. Equal values may be shown once.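 How tested: cells in 96-well plates exposed to compound for 48 hours at five concentrations. Abbreviation: GI50, concentration required for 50% inhibition of growth. TGI: total growth inhibition.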

Test systems include RPMI-8226 leukemia; SW-620 colon; OVCAR-4 ovarian; SF-268 CNS; K-562 leukemia; SK-MEL-5 melanoma; A498 renal; MDA-MB-231 breast.
What all share (assay): NCI anticancer screen, dose series, 48 h

With `CCOc1cc2c(cc1O)/C(=N\O)C[C@@H]1[C@@H]2CC[C@]2(C)[C@@H](O)CC[C@@H]12`, the TGI was 0.0632 µM in the assay on RPMI-8226 leukemia; greater than 100 µM in the assay on SW-620 colon; greater than 100 µM with OVCAR-4 ovarian; greater than 94.1 µM in the assay on K-562 leukemia; 1.32 µM and 10.2 µM with SK-MEL-5 melanoma; greater than 100 µM in the assay on A498 renal. Moreover, the GI50 with SW-620 colon was 0.0234 µM and 0.0382 µM; in the assay on OVCAR-4 ovarian it was 8.67 µM; with SF-268 CNS, 0.0884 µM; in the assay on K-562 leukemia, 0.00978 µM; with SK-MEL-5 melanoma it was 0.00618 µM; in the assay on A498 renal, 0.604 µM.
As to `C/C1=C/C2=CC(C)C[C@@H]2C(=O)[C@]2(C)C(=O)CC(C)(C)[C@H]2CC1=O` (stereo partly specified), the TGI with RPMI-8226 leukemia, in the assay on SW-620 colon, in the assay on OVCAR-4 ovarian, in the assay with SF-268 CNS, with K-562 leukemia and with SK-MEL-5 melanoma was greater than 50 µM in each case. Besides, the TGI in the assay with A498 renal and in the assay on MDA-MB-231 breast was greater than 50 µM throughout.
On to `O=C(O)CCC(=O)c1ccc2ccc3cccc4ccc1c2c34`, for which the TGI in the assay on RPMI-8226 leukemia, in the assay with SW-620 colon, in the assay on OVCAR-4 ovarian, in the assay with SF-268 CNS, in the assay with K-562 leukemia and in the assay on SK-MEL-5 melanoma was greater than 100 µM throughout. For the same compound, the TGI in the assay with A498 renal and with MDA-MB-231 breast was greater than 100 µM in each case.
As to `Cn1nnnc1N/N=C/c1ccccc1`, the TGI in the assay on RPMI-8226 leukemia, with SW-620 colon, in the assay on OVCAR-4 ovarian, in the assay with SF-268 CNS, in the assay on K-562 leukemia and in the assay with SK-MEL-5 melanoma was greater than 10 µM each time. In the assay with MDA-MB-231 breast, the TGI is greater than 10 µM.
Take `C=CC(C=O)C1(O)CCOC(=O)/C1=C\N` (stereo unspecified): the GI50 in the assay on RPMI-8226 leukemia was greater than 100 µM; in the assay with SW-620 colon it was greater than 100 µM; in the assay on SF-268 CNS it was greater than 100 µM; in the assay with K-562 leukemia it was greater than 100 µM; with SK-MEL-5 melanoma it was 62.4 µM; with MDA-MB-231 breast, greater than 100 µM. Also, the TGI in the assay on RPMI-8226 leukemia, with SW-620 colon, in the assay with SF-268 CNS, in the assay with K-562 leukemia, with SK-MEL-5 melanoma and in the assay with MDA-MB-231 breast was greater than 100 µM each time.
For the compound `O=C(CF)N(O)c1ccc(/C=C/c2ccccc2)cc1`, the GI50 with RPMI-8226 leukemia is 21.3 µM; in the assay on SW-620 colon it was 1.3 µM; with OVCAR-4 ovarian, 5.49 µM; with SF-268 CNS, 2.78 µM; with K-562 leukemia, 7.92 µM; in the assay on SK-MEL-5 melanoma it was 14.4 µM. Besides, the GI50 in the assay on A498 renal is 0.694 µM; in the assay on MDA-MB-231 breast, 21.8 µM. Further, the TGI in the assay on RPMI-8226 leukemia was greater than 100 µM; with SW-620 colon, greater than 100 µM; in the assay with OVCAR-4 ovarian it was greater than 66.9 µM; in the assay on SF-268 CNS it was greater than 100 µM; with K-562 leukemia it was greater than 100 µM; with SK-MEL-5 melanoma it was greater than 100 µM. Further, the values for the TGI in the assay with A498 renal and in the assay with MDA-MB-231 breast were 2.27 µM and greater than 100 µM, respectively.
`COc1cnc2c(c1)C(=O)c1c-2n(CCCN2CCC(O)CC2)c(=O)c2cc(F)ccc12`: the GI50 in the assay on RPMI-8226 leukemia was 0.109 µM; with SW-620 colon, 0.107 µM; with SF-268 CNS, 0.272 µM; in the assay with K-562 leukemia, 0.216 µM; with SK-MEL-5 melanoma, 0.201 µM; with A498 renal, 0.198 µM. For the same compound, the GI50 with MDA-MB-231 breast is 0.485 µM. In addition, the TGI in the assay with RPMI-8226 leukemia was 0.63 µM; in the assay with SW-620 colon it was 2.1 µM; in the assay on SF-268 CNS it was 8.32 µM; in the assay on K-562 leukemia it was 2.31 µM; in the assay with SK-MEL-5 melanoma, 0.628 µM; in the assay with A498 renal, 1.23 µM. This compound showed a TGI in the assay with MDA-MB-231 breast of 2.1 µM.
Turning to `CCN1C(NN)=NS(=O)(=O)c2ccccc21`, the TGI with SW-620 colon, in the assay with OVCAR-4 ovarian, with SF-268 CNS, in the assay on K-562 leukemia, in the assay with SK-MEL-5 melanoma and in the assay on A498 renal was greater than 100 µM throughout. The compound further displayed a TGI in the assay on MDA-MB-231 breast greater than 100 µM.
For the compound `O=C(CSC(c1ccccc1)c1ccccc1)N/N=C/c1cccc(Cl)c1`, the GI50 in the assay on RPMI-8226 leukemia is 19 µM; with SW-620 colon, 15 µM; in the assay on OVCAR-4 ovarian it was 15 µM; in the assay with SF-268 CNS it was 17.5 µM; with K-562 leukemia, 21.6 µM; in the assay on SK-MEL-5 melanoma, 11.4 µM. In addition, the GI50 with A498 renal is 14.9 µM; in the assay on MDA-MB-231 breast it was 14.4 µM. In addition, the TGI with RPMI-8226 leukemia was 41.7 µM; in the assay on SW-620 colon, 29.2 µM; in the assay with OVCAR-4 ovarian, 30.8 µM; in the assay on SF-268 CNS, 35 µM; in the assay on K-562 leukemia, 41.9 µM; in the assay on SK-MEL-5 melanoma it was 23.7 µM. Further, the TGI with A498 renal came to 29 µM; in the assay on MDA-MB-231 breast, 28.6 µM.
For the compound `COc1ccc2c(c1)C(=O)C(=O)c1cc(O)c(OC)c(OC)c1-2`, the GI50 in the assay on RPMI-8226 leukemia was 1.56 µM; with SW-620 colon, 2.8 µM; in the assay on OVCAR-4 ovarian, 1.56 µM; in the assay with SF-268 CNS it was 1.86 µM; in the assay with SK-MEL-5 melanoma, 1.68 µM; with A498 renal, 5.07 µM. Besides, the GI50 in the assay on MDA-MB-231 breast is 2.1 µM. The TGI is 2.67 µM and 3.81 µM in the assay on RPMI-8226 leukemia; 3.18 µM and 9.14 µM with SW-620 colon; 1.59 µM and 2.9 µM in the assay on OVCAR-4 ovarian; 1.96 µM and 3.26 µM in the assay with SF-268 CNS; 3.01 µM in the assay on K-562 leukemia; 1.53 µM and 3.07 µM with SK-MEL-5 melanoma. Also, the TGI in the assay on A498 renal is 10.5 µM and 12.9 µM; with MDA-MB-231 breast it was 1.91 µM and 3.87 µM.
As to `Oc1c(CN2CCCC2)cc(COCc2ccc(Br)cc2)c2cccnc12`, the GI50 was 1.12 µM in the assay with RPMI-8226 leukemia; 0.574 µM in the assay on SW-620 colon; 0.508 µM with OVCAR-4 ovarian; 0.76 µM in the assay on SF-268 CNS; 0.397 µM in the assay on K-562 leukemia; 0.329 µM in the assay on SK-MEL-5 melanoma. The values for the GI50 with A498 renal and in the assay on MDA-MB-231 breast were 1.62 µM and 0.851 µM, respectively. In addition, the TGI in the assay on RPMI-8226 leukemia is 4.02 µM; with SW-620 colon it was 7.21 µM; in the assay with OVCAR-4 ovarian, 3.02 µM; with SF-268 CNS it was 6.28 µM; in the assay with K-562 leukemia, 10.3 µM; with SK-MEL-5 melanoma it was 1.3 µM. The TGI in the assay on A498 renal was 5.27 µM; in the assay on MDA-MB-231 breast, 2.37 µM.
